The source of these data is ChEMBL document CHEMBL4813981, “Synthesis and in vitro antibacterial activity of new aminothiazole-oximepiperidone cephalosporins” (2021).

Broadly, the MIC is the lowest concentration found to suppress growth.

≈ marks a conversion by molar mass, not a printed value.

What all share (format): functional
In assay [1] the test system is Pseudomonas aeruginosa. Nature of the assay: Antibacterial activity against Pseudomonas aeruginosa ATCC 27853 assessed as reduction in bacterial growth.
Assay [2] has as its system Acinetobacter baumannii. Put plainly: Antibacterial activity against Multidrug resistant Acinetobacter baumannii AR 15-2 assessed as reduction in bacterial growth.
The subject of assay [3] is Escherichia coli. Put plainly: Antibacterial activity against Escherichia coli 15-3 overexpressing extended spectrum beta-lactamases assessed as reduction in bacterial growth.
Assay [4] concerns Escherichia coli. Put plainly: Antibacterial activity against Escherichia coli ATCC 35218 assessed as reduction in bacterial growth.
In assay [5] the test system is Acinetobacter baumannii. Put plainly: Antibacterial activity against Acinetobacter baumannii NCTC 13304 assessed as reduction in bacterial growth.
The test system of assay [6] is Klebsiella pneumoniae. Put plainly: Antibacterial activity against Klebsiella pneumoniae ATCC 700603 assessed as reduction in bacterial growth.
Assay [7] relates to Klebsiella pneumoniae. Put plainly: Antibacterial activity against Multidrug resistant Klebsiella pneumoniae KR 15-1 assessed as reduction in bacterial growth.
The subject of assay [8] is Acinetobacter baumannii. Nature of the assay: Antibacterial activity against Multidrug resistant Acinetobacter baumannii AR 15-4 assessed as reduction in bacterial growth.
Assay [9] relates to Klebsiella pneumoniae. Put plainly: Antibacterial activity against Multidrug resistant Klebsiella pneumoniae KR 15-3 assessed as reduction in bacterial growth.
The test system of assay [10] is Klebsiella pneumoniae. Nature of the assay: Antibacterial activity against Klebsiella pneumoniae ATCC BAA-1705 assessed as reduction in bacterial growth.
Assay [11] has as its system Klebsiella pneumoniae. Nature of the assay: Antibacterial activity against Multidrug resistant Klebsiella pneumoniae KR 15-2 assessed as reduction in bacterial growth.
Assay [12] has as its system Escherichia coli. Put plainly: Antibacterial activity against Escherichia coli 15-4 overexpressing extended spectrum beta-lactamases assessed as reduction in bacterial growth.
In assay [13] the test system is Escherichia coli. Put plainly: Antibacterial activity against Escherichia coli 15-5 overexpressing extended spectrum beta-lactamases assessed as reduction in bacterial growth.
Assay [14] concerns Enterococcus faecalis. Put plainly: Antibacterial activity against Enterococcus faecalis ATCC 51299 assessed as reduction in bacterial growth.
Assay [15] deals with Escherichia coli. Nature of the assay: Antibacterial activity against Escherichia coli NCTC 13353 assessed as reduction in bacterial growth.
Assay [16] concerns Escherichia coli. Nature of the assay: Antibacterial activity against Escherichia coli ATCC 25922 assessed as reduction in bacterial growth.
For assay [17], the system named is Acinetobacter baumannii. Put plainly: Antibacterial activity against Multidrug resistant Acinetobacter baumannii AR 15-3 assessed as reduction in bacterial growth.
For assay [18], the system named is Klebsiella pneumoniae. Put plainly: Antibacterial activity against Multidrug resistant Klebsiella pneumoniae KR 15-1 assessed as reduction in bacterial growth in the presence of Avibactam.
Assay [19] deals with Escherichia coli. Nature of the assay: Antibacterial activity against Escherichia coli ATCC 25922 assessed as reduction in bacterial growth in the presence of Avibactam.
Assay [20] deals with Klebsiella pneumoniae. Put plainly: Antibacterial activity against Multidrug resistant Klebsiella pneumoniae KR 15-3 assessed as reduction in bacterial growth in the presence of Avibactam.
Assay [21] concerns Pseudomonas aeruginosa. Put plainly: Antibacterial activity against Pseudomonas aeruginosa ATCC 27853 assessed as reduction in bacterial growth in the presence of Avibactam.
For assay [22], the system named is Klebsiella pneumoniae. Put plainly: Antibacterial activity against Klebsiella pneumoniae ATCC 700603 assessed as reduction in bacterial growth in the presence of Avibactam.
Assay [23] deals with Enterococcus faecalis. Nature of the assay: Antibacterial activity against Enterococcus faecalis ATCC 51299 assessed as reduction in bacterial growth in the presence of Avibactam.
For assay [24], the system named is Escherichia coli. Put plainly: Antibacterial activity against Escherichia coli 15-5 overexpressing extended spectrum beta-lactamases assessed as reduction in bacterial growth in the presence of Avibactam.
The subject of assay [25] is Acinetobacter baumannii. Put plainly: Antibacterial activity against Multidrug resistant Acinetobacter baumannii AR 15-4 assessed as reduction in bacterial growth in the presence of Avibactam.
Assay [26] deals with Acinetobacter baumannii. Nature of the assay: Antibacterial activity against Multidrug resistant Acinetobacter baumannii AR 15-3 assessed as reduction in bacterial growth in the presence of Avibactam.
Assay [27] concerns Acinetobacter baumannii. Nature of the assay: Antibacterial activity against Acinetobacter baumannii NCTC 13304 assessed as reduction in bacterial growth in the presence of Avibactam.
The test system of assay [28] is Escherichia coli. Put plainly: Antibacterial activity against Escherichia coli 15-4 overexpressing extended spectrum beta-lactamases assessed as reduction in bacterial growth in the presence of Avibactam.
In assay [29] the test system is Escherichia coli. Nature of the assay: Antibacterial activity against Escherichia coli NCTC 13353 assessed as reduction in bacterial growth in the presence of Avibactam.
Assay [30] deals with Acinetobacter baumannii. Put plainly: Antibacterial activity against Multidrug resistant Acinetobacter baumannii AR 15-2 assessed as reduction in bacterial growth in the presence of Avibactam.
Assay [31] has as its system Klebsiella pneumoniae. Put plainly: Antibacterial activity against Klebsiella pneumoniae ATCC BAA-1705 assessed as reduction in bacterial growth in the presence of Avibactam.
The subject of assay [32] is Klebsiella pneumoniae. Put plainly: Antibacterial activity against Multidrug resistant Klebsiella pneumoniae KR 15-2 assessed as reduction in bacterial growth in the presence of Avibactam.
Assay [33] relates to Escherichia coli. Nature of the assay: Antibacterial activity against Escherichia coli 15-3 overexpressing extended spectrum beta-lactamases assessed as reduction in bacterial growth in the presence of Avibactam.
The test system of assay [34] is Escherichia coli. Nature of the assay: Antibacterial activity against Escherichia coli ATCC 35218 assessed as reduction in bacterial growth in the presence of Avibactam.

With `C/C=C/C1=C(C(=O)O)N2C(=O)[C@@H](NC(=O)/C(=N\OCc3cc(=O)c(O)cn3O)c3csc(N)n3)[C@H]2SC1`, the minimum inhibitory concentration (MIC) in the assay with Pseudomonas aeruginosa [1] was 16 µg/mL (≈ 29.2 µM); in the assay with Acinetobacter baumannii [2] it was over 64 µg/mL; in the assay with Escherichia coli [3], over 64 µg/mL; with Escherichia coli [4], 1 µg/mL (≈ 1.82 µM); with Acinetobacter baumannii [5], over 64 µg/mL; with Klebsiella pneumoniae [6] it was 64 µg/mL (≈ 117 µM). Besides, the MIC in the assay on Klebsiella pneumoniae [7] is over 64 µg/mL; in the assay with Acinetobacter baumannii [8], over 64 µg/mL; in the assay with Klebsiella pneumoniae [9], over 64 µg/mL; in the assay with Klebsiella pneumoniae [10] it was 64 µg/mL (≈ 117 µM); in the assay on Klebsiella pneumoniae [11] it was over 64 µg/mL; in the assay with Escherichia coli [12] it was over 64 µg/mL. The minimal inhibitory concentration (MIC) is over 64 µg/mL in the assay with Escherichia coli [13]; over 64 µg/mL with Enterococcus faecalis [14]; over 64 µg/mL in the assay on Escherichia coli [15]; 1 µg/mL (≈ 1.82 µM) in the assay with Escherichia coli [16]; over 64 µg/mL in the assay on Acinetobacter baumannii [17].
Consider `COCC1=C(C(=O)O)N2C(=O)[C@@H](NC(=O)/C(=N\OCc3cc(=O)c(O)cn3O)c3csc(N)n3)[C@H]2SC1`, for which the MIC in the assay on Pseudomonas aeruginosa [1] is 2 µg/mL (≈ 3.62 µM); with Acinetobacter baumannii [2] it was over 64 µg/mL; in the assay with Escherichia coli [3], over 64 µg/mL; in the assay on Escherichia coli [4], 0.25 µg/mL (≈ 0.452 µM); in the assay on Acinetobacter baumannii [5], over 64 µg/mL; in the assay with Klebsiella pneumoniae [6] it was 64 µg/mL (≈ 116 µM). Moreover, the minimum inhibitory concentration (MIC) with Klebsiella pneumoniae [7], in the assay on Acinetobacter baumannii [8], with Klebsiella pneumoniae [9], in the assay with Klebsiella pneumoniae [10], in the assay on Klebsiella pneumoniae [11] and in the assay with Escherichia coli [12] was over 64 µg/mL in each case. Also, the MIC in the assay with Escherichia coli [13] was over 64 µg/mL; in the assay with Enterococcus faecalis [14] it was over 64 µg/mL; in the assay on Escherichia coli [15], over 64 µg/mL; in the assay on Escherichia coli [16], 2 µg/mL (≈ 3.62 µM); in the assay on Acinetobacter baumannii [17], over 64 µg/mL.
Consider `Nc1nc(/C(=N/OCc2cc(=O)c(O)cn2O)C(=O)N[C@@H]2C(=O)N3C(C(=O)O)=C(Cl)CS[C@H]23)cs1`, for which the minimal inhibitory concentration (MIC) is 2 µg/mL in the assay with Klebsiella pneumoniae [18]; 4 µg/mL (≈ 7.37 µM) with Pseudomonas aeruginosa [1]; over 64 µg/mL in the assay on Acinetobacter baumannii [2]; 0.125 µg/mL with Escherichia coli [19]; 1 µg/mL in the assay with Klebsiella pneumoniae [20]; over 64 µg/mL in the assay with Escherichia coli [3]. In addition, the MIC in the assay on Pseudomonas aeruginosa [21] is 1 µg/mL; with Klebsiella pneumoniae [22] it was over 64 µg/mL; in the assay on Escherichia coli [4], 0.5 µg/mL (≈ 0.921 µM); with Enterococcus faecalis [23], over 64 µg/mL; in the assay on Acinetobacter baumannii [5] it was over 64 µg/mL; with Klebsiella pneumoniae [6] it was over 64 µg/mL. Also, the MIC is over 64 µg/mL in the assay with Klebsiella pneumoniae [7]; over 64 µg/mL with Acinetobacter baumannii [8]; over 64 µg/mL in the assay on Klebsiella pneumoniae [9]; 0.5 µg/mL with Escherichia coli [24]; 8 µg/mL in the assay with Acinetobacter baumannii [25]; over 64 µg/mL in the assay with Klebsiella pneumoniae [10]. The minimal inhibitory concentration (MIC) with Acinetobacter baumannii [26] is 8 µg/mL; in the assay with Klebsiella pneumoniae [11], over 64 µg/mL; with Escherichia coli [12], over 64 µg/mL; with Acinetobacter baumannii [27], 32 µg/mL; with Escherichia coli [28], 1 µg/mL; in the assay on Escherichia coli [29], 1 µg/mL. Also, the minimal inhibitory concentration (MIC) with Acinetobacter baumannii [30] is 16 µg/mL; with Klebsiella pneumoniae [31], 8 µg/mL; with Escherichia coli [13], over 64 µg/mL; in the assay on Enterococcus faecalis [14], over 64 µg/mL; in the assay on Klebsiella pneumoniae [32], 1 µg/mL; with Escherichia coli [15], over 64 µg/mL. Also, the MIC in the assay on Escherichia coli [33] is 1 µg/mL; in the assay on Escherichia coli [16] it was 2 µg/mL (≈ 3.68 µM); in the assay on Acinetobacter baumannii [17] it was over 64 µg/mL; in the assay on Escherichia coli [34] it was 0.125 µg/mL.
